Experiments:
[1] = system: Streptococcus pneumoniae SPN0002 (PISP); test: Broad spectrum MIC, Table 17/18 column J; assay type: cell-based; details: condition J of Table 17, in µg/mL
How it was run: (§1)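 Broth microdilution MIC per NCCLS M7-A6, modified to use doubling serial dilutions of compound. Media conditions varied per column.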

[2] = system: S. aureus Smith (SAU0017, ATCC 19636); test: Intraperitoneal murine model of protection against infection (ED50, Table 21); assay type: in vivo, Staphylococcus aureus; details: Swiss CD1 mice infected i.p., compound i.v.
[3] = system: Staphylococcus epidermidis SEP0375 (MRSE); test: Broad spectrum MIC, Table 17/18 column I; assay type: cell-based; details: condition I of Table 17, in µg/mL
How it was run: as §1

[4] = system: Streptococcus pyogenes SPY0001 (PenS); test: Broad spectrum MIC, Table 17/18 column M; assay type: cell-based; details: condition M of Table 17, in µg/mL
How it was run: as §1

[5] = system: Streptococcus pneumoniae SPN0032 (PSSP); test: Broad spectrum MIC, Table 17/18 column L; assay type: cell-based; details: condition L of Table 17, in µg/mL
How it was run: as §1

[6] = system: Staphylococcus aureus SAU0017 (MSSA); test: Broad spectrum MIC, Table 17/18 columns E, F (+ 0.625 mM calcium; + calcium and 30% bovine serum); assay type: cell-based; details: in µg/mL; for MIC, media condition E: condition E: + 0.625 mM calcium; for MIC, media condition F: condition F: + calcium and 30% bovine serum
How it was run: as §1

[7] = In vivo half-life after single i.v. administration, mice; details: female, Swiss CD1, mouse, plasma, iv, 10 mg/kg
[8] = system: Streptococcus pneumoniae SPN0023 (PRSP); test: Broad spectrum MIC, Table 17/18 column K; assay type: cell-based; details: condition K of Table 17, in µg/mL
How it was run: as §1

[9] = system: Enterococcus faecium EFM0101 (VRE, MDR); test: Broad spectrum MIC, Table 17/18 column A; assay type: cell-based; details: condition A of Table 17, in µg/mL
How it was run: as §1

[10] = system: Staphylococcus aureus SAU0065 (MRSA); test: Broad spectrum MIC, Table 17/18 column H; assay type: cell-based; details: condition H of Table 17, in µg/mL
How it was run: as §1

[11] = system: Staphylococcus aureus SAU0031 (VISA); test: Broad spectrum MIC, Table 17/18 column G; assay type: cell-based; details: condition G of Table 17, in µg/mL
How it was run: as §1

[12] = system: Enterococcus faecalis EFS0004 (VSE); test: Broad spectrum MIC, Table 17/18 B, C, D (CAMHB; + 0.625 mM calcium; + calcium and 30% bovine serum); assay type: cell-based; details: in µg/mL; for MIC, media condition B: condition B: CAMHB; for MIC, media condition C: condition C: + 0.625 mM calcium; for MIC, media condition D: condition D: + calcium and 30% bovine serum
How it was run: as §1

## CCCCCCCCCCCCCCC(=O)NC(CC(=O)O)C(=O)NC1C(=O)N2CCCCC2C(=O)NC(C(C)C(=O)O)C(=O)NC(CC(=O)O)C(=O)NCC(=O)NC(CC(=O)O)C(=O)NCC(=O)NC(C(C)NC(=O)CN(C)C(=O)[C@@H](N)CCCCN)C(=O)NC(C(C)C)C(=O)N2CCCC2C(=O)NC1C (stereo partly drawn) [Compound 199, C15-Amphomycin-9-Sar-Lys]
[1]
  MIC, media condition J: 0.25
[2]
  ED50 in Mice, S. aureus (SAU0017): 8 mg/kg
[3]
  MIC, media condition I: 0.5-1
[4]
  MIC, media condition M: 0.25
[5]
  MIC, media condition L: 0.25-0.5
[6]
  MIC, media condition E: 0.25-1
  MIC, media condition F: 4-8
[7]
  half-life: 371 min
[8]
  MIC, media condition K: 0.25
[9]
  MIC, media condition A: 0.5-1
[10]
  MIC, media condition H: 1-2
[11]
  MIC, media condition G: 4-8
[12]
  MIC, media condition B: 1-2
  MIC, media condition C: 1-2
  MIC, media condition D: 64

## CCCCCCCCCCCCCCC(=O)NC(CC(=O)O)C(=O)NC1C(=O)N2CCCCC2C(=O)NC(C(C)C(=O)O)C(=O)NC(CC(=O)O)C(=O)NCC(=O)NC(CC(=O)O)C(=O)NCC(=O)NC(C(C)NC(=O)CNC(=O)[C@@H](N)CCCCN)C(=O)NC(C(C)C)C(=O)N2CCCC2C(=O)NC1C (stereo partly drawn) [Compound 4, C15-Amphomycin-9-Gly-Lys]
[1]
  MIC, media condition J: 0.25
[2]
  ED50 in Mice, S. aureus (SAU0017): 6.2 mg/kg
[3]
  MIC, media condition I: 1-2
[4]
  MIC, media condition M: 0.25
[5]
  MIC, media condition L: 0.25-0.5
[6]
  MIC, media condition E: 0.5-1
  MIC, media condition F: 4
[7]
  half-life: 45.1 min
[8]
  MIC, media condition K: 0.25
[9]
  MIC, media condition A: 1
[10]
  MIC, media condition H: 1-4
[11]
  MIC, media condition G: 8
[12]
  MIC, media condition B: 1-4
  MIC, media condition C: 1-2
  MIC, media condition D: >64

## CCCCCCCCCCCCCCC(=O)NC(CC(=O)O)C(=O)NC1C(=O)N2CCCCC2C(=O)NC(C(C)C(=O)O)C(=O)NC(CC(=O)O)C(=O)NCC(=O)NC(CC(=O)O)C(=O)NCC(=O)NC(C(C)NC(=O)CCN)C(=O)NC(C(C)C)C(=O)N2CCCC2C(=O)NC1C (stereo not drawn) [Compound 147, C15-Amphomycin-9-(β-Ala)]
[1]
  MIC, media condition J: 0.125
[2]
  ED50 in Mice, S. aureus (SAU0017): 6.5 mg/kg
[3]
  MIC, media condition I: 0.5-1
[4]
  MIC, media condition M: 0.125
[5]
  MIC, media condition L: 0.125
[6]
  MIC, media condition E: 0.25-0.5
  MIC, media condition F: 2
[7]
  half-life: 481 min
[8]
  MIC, media condition K: 0.125
[9]
  MIC, media condition A: 0.5-1
[10]
  MIC, media condition H: 1
[11]
  MIC, media condition G: 2
[12]
  MIC, media condition B: 2
  MIC, media condition C: 0.5-1
  MIC, media condition D: 32

From patent publication US7868135B2, “Compositions of lipopeptide antibiotic derivatives and methods of use thereof” (priority 2003, dated 2011)
